# Test results published in patent publication US12031989B2, “Preparing live microbial samples and microorganisms for subsequent mass spectrometric measurement and evaluation” (Bruker Daltonics GmbH & Co. KG, priority 2016, dated 2024).
# Tests used:
# [1] = system: Klebsiella pneumoniae meropenem-resistant strain; test: resistance/sensitivity test directly on MALDI-TOF MS sample support, meropenem-resistant strain; format: cell-based
# Source text: (§1) The antibiotic (for example an antibiotic solution in a liquid nutrient medium) can be mixed with a microorganism suspension either in a cultivation vessel or directly on a spot of a MALDI-TOF MS support 12 (hatched droplet 14*). In addition, this is generally accompanied by a growth control on a different section of the MALDI-TOF MS support, i.e. a cultivation of the microorganism suspension in a nutrient medium without the addition of an antibiotic (unhatched droplet 14). It is preferable for a very small quantity of the suspension to be applied to the spots; for example 1-10 microliters. The sensitivity test thus takes place in microdroplets 14, 14*, preferably with a volume of around 4-8 microliters. The use of even smaller volumes is also possible in principle, for example in the form of nanodroplets. The initial microorganism concentration in the droplets 14, 14* can be slightly below the detection limit of a conventional MALDI time-of-flight mass spectrometer with linear flight path, and thus amount to around 5×10^5 cfu per milliliter, for example (cfu—colony forming unit). FIG. 3A.
# In the example shown, the MALDI-TOF MS support 12 with the test solution is subsequently cultured in a so-called “humidity chamber” 16 in an incubator at high humidity. The purpose of the humidity chamber 16 is to prevent the droplets 14, 14* from evaporating prematurely during the incubation, and it can take the form of a box with a lid, made of plastic, for example, into which the MALDI-TOF MS support can easily be placed. […] A small quantity of liquid can be put in the humidity chamber 16, for example 0.1 to 5 milliliters of water or NaCl solution to humidify the atmosphere in the chamber 16 and thus set a high ambient humidity (nearly 100%) so that the evaporation of the droplets of nutrient medium 14, 14* themselves is prevented. FIG. 3B.
# In the droplets 14, 14*, a high concentration of the microorganisms in a small volume of liquid is rapidly achieved during incubation (as long as the growth is not inhibited by antimicrobial substances). […]
# [2] = system: Klebsiella pneumoniae meropenem-sensitive strain; test: resistance/sensitivity test directly on MALDI-TOF MS sample support, meropenem-sensitive strain; format: cell-based
# Source text: as §1, with “The initial microorganism concentration in the droplets 14, 14* can be slightly below the detection limit of a conventional MALDI time-of-flight mass spectrometer with linear flight path, and thus amount to around 5×10^5 cfu per milliliter, for example (cfu—colony forming unit). FIG. 3A.” left out
# In the example shown, the MALDI-TOF MS support 12 with the test solution is subsequently cultured in a so-called “humidity chamber” 16 in an incubator at high humidity. […] A small quantity of liquid can be put in the humidity chamber 16, for example 0.1 to 5 milliliters of water or NaCl solution to humidify the atmosphere in the chamber 16 and thus set a high ambient humidity (nearly 100%) so that the evaporation of the droplets of nutrient medium 14, 14* themselves is prevented. […]
# [3] = 2 micrograms per milliliter, 6 microliter droplet, four hours incubation, MALDI Biotyper evaluation
smiles,measurement,setting,value
C[C@@H](O)[C@H]1C(=O)N2C(C(=O)O)=C(S[C@@H]3CN[C@H](C(=O)N(C)C)C3)[C@H](C)[C@H]12 [meropenem],bacterial growth in the presence of meropenem (specific mass signal signatures vs growth control),[1]; [3],not inhibited
same,"relative growth, median","[1]; 4 microliter droplet, measurements occasionally below threshold, FIG. 4B",greater than 0.4
same,relative growth,"[1]; droplet sizes 2, 6, 8 and 10 microliters, significant growth threshold 0.4, FIG. 4B",greater than 0.4
same,bacterial growth in the presence of meropenem (specific mass signal signatures vs growth control),[2]; [3],cannot multiply (or scarcely)
same,relative growth,"[2]; droplet sizes 2, 4, 6, 8 and 10 microliters, significant growth threshold 0.4, FIG. 4B",< 0.4
